Results as given in PubChem BioAssay (NCI).
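96-well plates; 48 h exposure; 5 concentrations. Endpoints by linear interpolation between flanking doses. Not reached: highest tested concentration assigned. GI50 marks 50% less growth. TGI: concentration producing complete growth inhibition.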

What was measured:
Experiment in all cases: NCI tumour cell line growth inhibition, 48 h
[1] = test system: MOLT-4 leukemia
[2] = test system: UO-31 renal
[3] = test system: NCI/ADR-RES ovarian
[4] = test system: A498 renal
[5] = test system: HOP-62 NSCLC
[6] = test system: HT29 colon
[7] = test system: HCC-2998 colon
[8] = test system: KM12 colon
[9] = test system: A549 NSCLC
[10] = test system: SF-539 CNS
[11] = test system: OVCAR-5 ovarian
[12] = test system: NCI-H23 lung
[13] = test system: SK-MEL-2 melanoma
[14] = test system: SN12C renal
[15] = test system: 786-0 renal
[16] = test system: SK-MEL-28 melanoma
[17] = test system: T-47D breast
[18] = test system: DU-145 prostate
[19] = test system: HCT-116 colon
[20] = test system: OVCAR-3 ovarian
[21] = test system: RPMI-8226 leukemia
[22] = test system: NCI-H460 lung
[23] = test system: PC-3 prostate
[24] = test system: LOX IMVI melanoma
[25] = test system: SK-OV-3 ovarian
[26] = test system: BT-549 breast
[27] = test system: RXF 393 renal
[28] = test system: HS 578T breast
[29] = test system: ACHN renal
[30] = test system: HOP-92 NSCLC
[31] = test system: HCT-15 colon
[32] = test system: SW-620 colon
[33] = test system: SK-MEL-5 melanoma
[34] = test system: SR leukemia
[35] = test system: SF-268 CNS
[36] = test system: M14 melanoma
[37] = test system: NCI-H522 lung
[38] = test system: MDA-MB-231 breast
[39] = test system: SF-295 CNS
[40] = test system: UACC-62 melanoma
[41] = test system: SNB-19 CNS
[42] = test system: K-562 leukemia
[43] = test system: COLO 205 colon
[44] = test system: CAKI-1 renal
[45] = test system: EKVX NSCLC
[46] = test system: MCF7 breast
[47] = test system: HL-60(TB) leukemia
[48] = test system: UACC-257 melanoma
[49] = test system: U251 CNS
[50] = test system: MDA-MB-435
[51] = test system: OVCAR-4 ovarian
[52] = test system: NCI-H226 lung
[53] = test system: TK-10 renal
[54] = test system: OVCAR-8 ovarian
[55] = test system: CCRF-CEM leukemia
[56] = test system: IGROV1 ovarian
[57] = test system: SNB-75 CNS
[58] = test system: MALME-3M melanoma

SMILES: CC(=O)Nc1cccc(C#Cc2cncnc2Nc2ccc(OCc3cccc(F)c3)c(Cl)c2)c1
- GI50 [1]: 6.82 µM
- TGI [1]: > 25 µM
- GI50 [2]: 3.55 µM
- TGI [2]: > 25 µM
- GI50 [3]: 6.86 µM
- TGI [3]: > 25 µM
- GI50 [4]: 1.1 µM
- TGI [4]: > 16.6 µM
- GI50 [5]: > 19.8 µM
- TGI [5]: > 25 µM
- GI50 [6]: 7.89 µM
- TGI [6]: > 25 µM
- GI50 [7]: 7.94 µM
- TGI [7]: > 25 µM
- GI50 [8]: 9.64 µM
- TGI [8]: > 25 µM
- GI50 [9]: 5.87 µM
- TGI [9]: > 25 µM
- GI50 [10]: 14.9 µM
- TGI [10]: > 25 µM
- GI50 [11]: 12.7 µM
- TGI [11]: > 25 µM
- GI50 [12]: 10.6 µM
- TGI [12]: > 25 µM
- GI50 [13]: 6.43 µM
- TGI [13]: > 22.8 µM
- GI50 [14]: 10.2 µM
- TGI [14]: > 25 µM
- GI50 [15]: 7.66 µM
- TGI [15]: > 25 µM
- GI50 [16]: 17.1 µM
- TGI [16]: > 25 µM
- GI50 [17]: 3.7 µM
- TGI [17]: > 25 µM
- GI50 [18]: 10 µM
- TGI [18]: > 25 µM
- GI50 [19]: 9.1 µM
- TGI [19]: > 25 µM
- GI50 [20]: 7.53 µM
- TGI [20]: > 25 µM
- GI50 [21]: 12.7 µM
- TGI [21]: > 25 µM
- GI50 [22]: 8.94 µM
- TGI [22]: > 25 µM
- GI50 [23]: 8.49 µM
- TGI [23]: > 25 µM
- GI50 [24]: 8.12 µM
- TGI [24]: > 25 µM
- GI50 [25]: 6.14 µM
- TGI [25]: > 25 µM
- GI50 [26]: 11.9 µM
- TGI [26]: > 25 µM
- GI50 [27]: 0.753 µM
- TGI [27]: > 15.1 µM
- GI50 [28]: 10.2 µM
- TGI [28]: > 25 µM
- GI50 [29]: 6.09 µM
- TGI [29]: > 25 µM
- GI50 [30]: 4.05 µM
- TGI [30]: > 22.5 µM
- GI50 [31]: 7.41 µM
- TGI [31]: > 25 µM
- GI50 [32]: 17.9 µM
- TGI [32]: > 25 µM
- GI50 [33]: 8.12 µM
- TGI [33]: > 25 µM
- GI50 [34]: > 18.7 µM
- TGI [34]: > 25 µM
- GI50 [35]: 16.6 µM
- TGI [35]: > 25 µM
- GI50 [36]: 10.8 µM
- TGI [36]: > 25 µM
- GI50 [37]: 4.47 µM
- TGI [37]: 23.9 µM
- GI50 [38]: 15.6 µM
- TGI [38]: > 25 µM
- GI50 [39]: 6.47 µM
- TGI [39]: > 25 µM
- GI50 [40]: 8.88 µM
- TGI [40]: > 25 µM
- GI50 [41]: 24.6 µM
- TGI [41]: > 25 µM
- GI50 [42]: 8.96 µM
- TGI [42]: > 25 µM
- GI50 [43]: 9.17 µM
- TGI [43]: > 25 µM
- GI50 [44]: 3.3 µM
- TGI [44]: > 25 µM
- GI50 [45]: 2.01 µM
- TGI [45]: > 21.5 µM
- GI50 [46]: 8.33 µM
- TGI [46]: > 25 µM
- GI50 [47]: 7.59 µM
- TGI [47]: > 25 µM
- GI50 [48]: 13.7 µM
- TGI [48]: > 25 µM
- GI50 [49]: 11.8 µM
- TGI [49]: > 25 µM
- GI50 [50]: 8.14 µM
- TGI [50]: > 25 µM
- GI50 [51]: 7.6 µM
- TGI [51]: > 25 µM
- GI50 [52]: 10 µM
- TGI [52]: > 25 µM
- GI50 [53]: 1.6 µM
- TGI [53]: 16.3 µM
- GI50 [54]: 6.35 µM
- TGI [54]: 24.9 µM
- GI50 [55]: 10.2 µM
- TGI [55]: > 25 µM
- GI50 [56]: 4.49 µM
- TGI [56]: > 25 µM
- GI50 [57]: 13.2 µM
- TGI [57]: > 25 µM
- GI50 [58]: 12.5 µM
- TGI [58]: > 25 µM
